Measurements as given in patent US20250223268A1, “4-Methylsulfonylbenzamide Compound, Preparation Method, Herbicidal Composition And Use” (Jiangsu Flag Chemical Industry Co., Ltd., priority 2022, published 2025).

How the values were obtained:
Assay in all cases: Greenhouse herbicidal activity assay, post-emergence
Type in all cases: in vivo
Conditions in all cases: Post-emergence test, rate 150 g a.i./hm^2; grade by fresh weight inhibition rate
[1] = test system: Cyperus iria
In short: (§1)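 Scores reflect fresh weight inhibition assessed 14-21 days after treatment, with grade A meaning ≥80% to 100% and grade E meaning <20%. Plants, raised in nutrient-soil pots inside a growth chamber, were sprayed on the foliage at the 3-6 leaf stage.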

[2] = test system: Digitaria sanguinalis
In short: as §1

[3] = test system: Echinochloa crusgalli
In short: as §1

[4] = test system: Eclipta prostrata
In short: as §1

[5] = test system: Leptochloa chinensis
In short: as §1

SMILES	Control efficacy grade, Cyperus iria [1]	Control efficacy grade, Digitaria sanguinalis [2]	Control efficacy grade, Echinochloa crusgalli [3]	Control efficacy grade, Eclipta prostrata [4]	Control efficacy grade, Leptochloa chinensis [5]
CS(=O)(=O)c1ccc(C(=O)Nc2nnc(C3CC3)o2)c(Cl)c1[S+]([O-])CC1CC1 (racemic) [Compound 3-647]	A (Fresh weight inhibition rate≥80% to 100%)	A (Fresh weight inhibition rate≥80% to 100%)	A (Fresh weight inhibition rate≥80% to 100%)	A (Fresh weight inhibition rate≥80% to 100%)	A (Fresh weight inhibition rate≥80% to 100%)
CS(=O)(=O)c1ccc(C(=O)Nc2nnc(C3CC3)o2)c(Cl)c1[S+]([O-])C1CCC1 (racemic) [Compound 3-657]	A (Fresh weight inhibition rate≥80% to 100%)	A (Fresh weight inhibition rate≥80% to 100%)	B (Fresh weight inhibition rate≥260% to <80%)	A (Fresh weight inhibition rate≥80% to 100%)	A (Fresh weight inhibition rate≥80% to 100%)
CS(=O)(=O)c1ccc(C(=O)Nc2nnc(C3CC3)o2)c(Cl)c1[S+]([O-])C1CCCCC1 (racemic) [Compound 3-667]	A (Fresh weight inhibition rate≥80% to 100%)	A (Fresh weight inhibition rate≥80% to 100%)	C (Fresh weight inhibition rate≥40% to <60%)	A (Fresh weight inhibition rate≥80% to 100%)	A (Fresh weight inhibition rate≥80% to 100%)
C=CC[S+]([O-])c1c(S(C)(=O)=O)ccc(C(=O)Nc2nnc(C3CC3)o2)c1Cl (racemic) [Compound 3-687]	A (Fresh weight inhibition rate≥80% to 100%)	A (Fresh weight inhibition rate≥80% to 100%)	B (Fresh weight inhibition rate≥260% to <80%)	A (Fresh weight inhibition rate≥80% to 100%)	A (Fresh weight inhibition rate≥80% to 100%)
CS(=O)(=O)c1ccc(C(=O)Nc2nnc(C3CC3)o2)c(Cl)c1[S+]([O-])C(F)(F)C(F)(F)F (racemic) [Compound 3-692]	A (Fresh weight inhibition rate≥80% to 100%)	A (Fresh weight inhibition rate≥80% to 100%)	A (Fresh weight inhibition rate≥80% to 100%)	A (Fresh weight inhibition rate≥80% to 100%)	A (Fresh weight inhibition rate≥80% to 100%)
CS(=O)(=O)c1ccc(C(=O)Nc2nnc(C3CC3)o2)c(Cl)c1[S+]([O-])CCCl (racemic) [Compound 3-727]	A (Fresh weight inhibition rate≥80% to 100%)	A (Fresh weight inhibition rate≥80% to 100%)	A (Fresh weight inhibition rate≥80% to 100%)	A (Fresh weight inhibition rate≥80% to 100%)	A (Fresh weight inhibition rate≥80% to 100%)
CCCC[S+]([O-])c1c(S(C)(=O)=O)ccc(C(=O)Nc2nonc2C)c1Cl (racemic) [Compound 4-12]	A (Fresh weight inhibition rate≥80% to 100%)	A (Fresh weight inhibition rate≥80% to 100%)	A (Fresh weight inhibition rate≥80% to 100%)	A (Fresh weight inhibition rate≥80% to 100%)	B (Fresh weight inhibition rate≥260% to <80%)
Cc1nonc1NC(=O)c1ccc(S(C)(=O)=O)c([S+]([O-])C2CC2)c1Cl (racemic) [Compound 4-38]	A (Fresh weight inhibition rate≥80% to 100%)	A (Fresh weight inhibition rate≥80% to 100%)	A (Fresh weight inhibition rate≥80% to 100%)	A (Fresh weight inhibition rate≥80% to 100%)	A (Fresh weight inhibition rate≥80% to 100%)
Cc1nonc1NC(=O)c1ccc(S(C)(=O)=O)c([S+]([O-])C2CCC2)c1Cl (racemic) [Compound 4-43]	A (Fresh weight inhibition rate≥80% to 100%)	A (Fresh weight inhibition rate≥80% to 100%)	A (Fresh weight inhibition rate≥80% to 100%)	A (Fresh weight inhibition rate≥80% to 100%)	A (Fresh weight inhibition rate≥80% to 100%)
CCC[S+]([O-])c1c(S(C)(=O)=O)ccc(C(=O)Nc2nnnn2C)c1Cl (single isomer, unassigned) [Compound 1-3]	A (Fresh weight inhibition rate≥80% to 100%)	A (Fresh weight inhibition rate≥80% to 100%)	A (Fresh weight inhibition rate≥80% to 100%)	A (Fresh weight inhibition rate≥80% to 100%)	A (Fresh weight inhibition rate≥80% to 100%)
CCC[S+]([O-])c1c(S(C)(=O)=O)ccc(C(=O)Nc2nnnn2C)c1Cl (single isomer, unassigned) [Compound 1-4]	A (Fresh weight inhibition rate≥80% to 100%)	A (Fresh weight inhibition rate≥80% to 100%)	A (Fresh weight inhibition rate≥80% to 100%)	A (Fresh weight inhibition rate≥80% to 100%)	A (Fresh weight inhibition rate≥80% to 100%)
CC(C)[S+]([O-])c1c(S(C)(=O)=O)ccc(C(=O)Nc2nnnn2C)c1Cl (single isomer, unassigned) [Compound 1-8]	A (Fresh weight inhibition rate≥80% to 100%)	A (Fresh weight inhibition rate≥80% to 100%)	A (Fresh weight inhibition rate≥80% to 100%)	A (Fresh weight inhibition rate≥80% to 100%)	A (Fresh weight inhibition rate≥80% to 100%)
CC(C)[S+]([O-])c1c(S(C)(=O)=O)ccc(C(=O)Nc2ncnn2C)c1Cl (single isomer, unassigned) [Compound 2-8]	A (Fresh weight inhibition rate≥80% to 100%)	A (Fresh weight inhibition rate≥80% to 100%)	A (Fresh weight inhibition rate≥80% to 100%)	A (Fresh weight inhibition rate≥80% to 100%)	A (Fresh weight inhibition rate≥80% to 100%)
CC(C)[S+]([O-])c1c(S(C)(=O)=O)ccc(C(=O)Nc2ncnn2C)c1Cl (single isomer, unassigned) [Compound 2-9]	A (Fresh weight inhibition rate≥80% to 100%)	A (Fresh weight inhibition rate≥80% to 100%)	A (Fresh weight inhibition rate≥80% to 100%)	A (Fresh weight inhibition rate≥80% to 100%)	A (Fresh weight inhibition rate≥80% to 100%)
